Read-outs that look alike come from different tables or passages of the source.
Tests used:
[1] = Miscibility of diamines and triamines with water before and after CO2; assay type: physicochemical; conditions: 5:1 w/w water:additive; for miscibility with water After addition of CO2: CO2 90 min; for miscibility with water Before addition of CO2: room temperature
Protocol: A 5:1 w/w solution of water and the liquid additive (total volume 5 mL) were mixed together in a glass vial at room temperature. Whether the mixture formed one or two liquid phases was visually observed. Then CO2 was bubbled through the mixture via a single narrow gauge steel needle at a flow rate of ˜5 mL min^−1 for 90 min. Whether the mixture formed one or two phases was visually observed.

[2] = assay type: physicochemical
Protocol: Specifically, a 1:1:1 (v/v/v) mixture of DBU, water and compound was added to a six dram vial containing a magnetic stirrer and fitted with a rubber septa. […] A second narrow gauge steel needle was inserted to allow venting of the gaseous phase.
When the compound was THF, a single phase miscible liquid mixture was observed.

[3] = Solution conductivity before and after CO2; assay type: physicochemical
Protocol: The solution conductivities of the materials given below were measured. The mass of each material indicated was weighed into a 150 mL beaker charged with a stir bar along with 100 mL of ultra pure water. The solutions were stirred until visibly dissolved and their conductivity measured. […] All solutions were left to stir overnight to test reproducibility. Solution conductivities were re-recorded giving little change in values. CO2 was bubbled at 10 psi through a fine glass frit tube (to make bubble size as small as possible for greater surface area and therefore faster carbonation) with each solution for 30 minutes. In the case of TBAB and functionalized PMMA, significant amounts of bubbling were observed. Solution conductivities were re-recorded.

[4] = Reversible protonation monitored by conductivity, fritted glass apparatus; assay type: physicochemical
Protocol: 1:1 v/v solutions of the various additives and distilled, deionised water were prepared in six dram glass vials and transferred to a fritted glass apparatus which acted as a reaction vessel. The fritted glass apparatus consisted of a long narrow glass tube leading to a fine glass frit having a diameter of approximately 4 cm. The other end of the glass frit was connected to a cylindrical glass tube which held the solution of the additive during contacting with the trigger gas. This apparatus allowed a multiple source of trigger gas bubbles to contact the solution, compared to the single point source of Example 5.
A trigger gas chosen from CO2, air or nitrogen was bubbled through the solution via the glass frit at a flow rate of 110 mL min^−1 as measured by a J&W Scientific ADM 2000 Intelligent Flowmeter (CA, USA). For each conductivity measurement, the solution was transferred back to a six dram vial, cooled to 298 K and measured in triplicate. Conductivity measurements were performed using a Jenway 470 Conductivity Meter (Bibby Scientific, NJ, US) having a cell constant of 1.02 cm^−1.

[5] = Degree of protonation of methylated spermine by carbonated water, 1H NMR; assay type: physicochemical; conditions: 0.1 M in D2O, room temperature, CO2
From the text: (§1) The spectrum was then acquired.
(§2) This process was repeated.

[6] = 4 M solution; cited from earlier work
[7] = Viscosity with and without CO2 (capillary viscometer); assay type: physicochemical; conditions: 104.6 mg in 10 mL H2O
Protocol: In order to study the use of switchable water additives in a method and system for viscosity control, a switchable additive or other molecule of interest was placed in a 50 mL round-bottom flask equipped with a 1 cm magnetic stir-bar and placed on a stir-plate. […] The solution was then transferred in to a Technical Glass Products, Inc. C. F. Opage viscometer with either a 100 or 200 capillary tube. The measurements were taken at room temperature (i.e., from about 15-30° C.) and repeated twice. The solution was transferred back into the round bottom flask and CO2 was introduced to the mixture by bubbling for 30 minutes at a flow rate of 80 ml/min. The carbonated solution was then put into the viscometer and the viscosity was measured three times. The viscosity in centistokes (cS) was calculated from the times the solution took to run through the viscometer.

[8] = Switchable osmotic pressure (Zimm-Meyerson osmometer, hydrostatic pressure); assay type: physicochemical
Protocol: The switchable osmotic pressure measurements were conducted on a Zimm-Meyerson osmometer using Sterlitech UTC-80LB toray flat sheet membranes. A 0.1% (w/v) switchable polyamine solution in water was made by dissolving 20 mg of the corresponding polyamine in 20 mL deionized H2O. […] The system was closed with a lid and allowed to reach equilibrium overnight. Measurements of the capillary tube and the control capillary were taken. The draw solution was then taken out of the cell and transferred into a graduated cylinder. Both the draw solution and the solution of the outer cell were carbonated by bubbling CO2 with a gas dispersion tube for 1 h. The draw solution was transferred back into the glass cell of the osmometer, the system was closed and held under an atmosphere of CO2. A constant flow of CO2 was maintained using two gauche needles, one of them connected to a CO2 source with a flow rate of 10 ml/min. The heights taken were height differences of the capillary tube connected to the cell and the control capillary tube. Based on these heights the hydrostatic pressure was calculated using the equation: Π=ρhg where Π is the hydrostatic pressure, ρ is the density of the solution, h is the height of the water column and g is the force of gravity. Hydrostatic pressure is taken to be proportional to osmotic pressure of the solution at equilibrium.

[9] = Degree of protonation by CO2 in D2O by 1H NMR; assay type: physicochemical; conditions: 0.1 M in D2O
From the text: as §1, §2

[10] = Zeta potential of suspended clay particles; assay type: physicochemical; conditions: for Zeta Potential: kaolinite clay
Protocol: (§3) Clay fines were weighed and placed into individual vials (0.025 g, Ward's Natural Science Establishment). Kaolinite and montmorillonite were used as received, but illite clay was ground into a powder using a mortar and pestle. Solutions containing additives were made with deionized water (18.2 MΩ/cm, Millipore) and 10 mL was added to the clay fines. A suspension was created using a vortex mixer and subsequently dispensed into a folded capillary cell. The zeta potential was measured using a Malvern Zetasizer instrument. The errors reported on the zeta potential values were the standard deviations of the zeta potential peaks measured.
(§4) Unless specified, all carbon dioxide treatments were conducted with the aqueous solutions prior to addition to the clay fines. For applicable measurements, ultra pure carbon dioxide (Supercritical CO2 Chromatographic Grade, Paxair) was bubbled through the solutions using a syringe.
Another experiment was performed in which CO2 was bubbled through a 1 mM aqueous solution of TMDAB that already contained clay fines (a method referred to as “switching in situ”).

[11] = Zeta potential of suspended clay particles; assay type: physicochemical
Protocol: as §3, §4

[12] = pH of 5% (w/v) kaolinite suspensions; assay type: physicochemical
Protocol: The pH of the following 5% (w/v) kaolinite suspensions were measured: CO2 blank and 1 mM TMDAB and 10 mM TMDAB after CO2-treatment. To investigate the effect of pH on suspension settling behaviour, 5% (w/v) kaolinite suspensions were prepared, and the pH of each suspension was adjusted with HCl and NaOH to match the pH of corresponding treatment conditions. To investigate the effect of ionic strength on suspension settling behaviour, pH was again corrected to match the pH of corresponding treatment conditions, and ionic strength was adjusted with NaCl or ammonium sulphate, assuming all basic sites on the diamine were protonated.

[13] = 1 mM TMDAB + 1 h CO2 + […] N2 at 70° C.

SMILES: CN(C)Cc1cc(CN(C)C)cc(CN(C)C)c1 [1,3,5-C6H3(CH2NMe2)3, N,N,N′,N′,N″,N″-1,3,5-benzenetrimethanamine]
- miscibility with water After addition of CO2 [1]: miscible
- miscibility with water Before addition of CO2 [1]: miscible

SMILES: CN(C)CC1CC(CN(C)C)CC(CN(C)C)C1 (stereo not shown) [CHTDMA, 1,1′,1″-(cyclohexane-1,3,5-triyl)tris(N,N-dimethylmethanamine)]
- miscibility with water After addition of CO2 [1]: miscible
- miscibility with water Before addition of CO2 [1]: immiscible

SMILES: C1CCC2=NCCCN2CC1 [DBU, 1,8-diazabicyclo-[5.4.0]-undec-7-ene]
- solubility of non-ionic amidine form in water [2]: soluble in water

SMILES: CN(C)CCCN [H2N(CH2)3NMe2, 3-dimethylamino-1-propylamine]
- C after 30 mins CO2 ([3]; CO2 bubbled at 10 psi, 30 minutes): 3360 μS/cm
- Initial C ([3]; mass as listed in 100 mL ultra pure water): 398 μS/cm

SMILES: CN(C)CCN(C)CCN(C)CCN(C)C [HMTETA, 1,1,4,7,10,10-hexamethyl triethylenetetramine]
- conductivity of ionic form solution after N2 flushing ([4]; 1:1 v/v H2O:amine, N2 at 80° C., after 20 minutes): close to zero

SMILES: CN(C)CCCN(C)CCCCN(C)CCCN(C)C [MeSpe, N^1,N^1′-(butane-1,4-diyl)bis(N^1,N^3,N^3-trimethylpropane-1,3-diamine)]
- degree of protonation [5]: 93%

SMILES: [Cl-].[Cl-].[Mg+2] [MgCl2]
- osmotic pressure [6]: 800 atm

SMILES: CN(C)C1CCCCC1 [N,N-dimethylcyclohexylamine]
- viscosity without CO2 [7]: 1.0 cS
- viscosity with CO2 ([7]; CO2 30 minutes): 1.0 cS
- hydrostatic pressure without CO2 ([8]; control experiments, height before CO2 treatment): 580 Pa
- hydrostatic pressure with CO2 ([8]; nominal 0.1% (w/v), carbonated 1 h, CO2 atmosphere): 1550 Pa
- pressure increase ([8]; ratio with CO2 / without CO2): 2.7

SMILES: CCCN(CC)CCCCN(CC)CCC [N,N′-diethyl-N,N′-dipropyl-1,4-diaminobutane]
- miscibility with water After addition of CO2 [1]: miscible
- miscibility with water Before addition of CO2 [1]: immiscible

SMILES: CCCN(CCC)CCCCN(CCC)CCC [Pr2NCH2CH2CH2CH2NPr2, N,N,N′,N′-tetrapropyl-1,4-diaminobutane]
- miscibility with water After addition of CO2 [1]: immiscible
- miscibility with water Before addition of CO2 [1]: immiscible

SMILES: CCN(CC)CCCCN(CC)CC [TEDAB, N,N,N′,N′-tetraethyl-1,4-diaminobutane]
- miscibility with water After addition of CO2 [1]: miscible
- miscibility with water Before addition of CO2 [1]: immiscible

SMILES: OCCN(CCO)CCN(CCO)CCO [THEED, N,N,N′,N′-tetrakis(2-hydroxyethyl) ethylenediamine]
- % deprotonated ([9]; 2 hours N2 bubbling at 75° C.): 98%
- % protonation ([9]; by 10 minutes CO2): 49%

SMILES: CN(C)CCCCN(C)C [TMDAB, N,N,N′,N′-tetramethyl-1,4-diaminobutane]
- Zeta Potential, Switching externally ([10]; 1 mM TMDAB): −39.6 ± 6.68 mV
- Zeta Potential, Switching in situ ([10]; 1 mM TMDAB): −38.9 ± 8.69 mV
- Zeta Potential, Switching externally ([10]; 1 mM TMDAB + 1 h CO2): −5.03 ± 4.46 mV
- Zeta Potential, Switching in situ ([10]; 1 mM TMDAB + 1 h CO2): −0.31 ± 4.15 mV
- Zeta Potential, Switching externally [10, 13]: −25.0 ± 5.84 mV
- Zeta Potential, Switching in situ [10, 13]: −32.5 ± 6.38 mV
- Zeta Potential ([10]; 1 mM additive + […] CO2): −5.03 ± 4.46 mV
- Zeta Potential ([10]; 1 mM additive): −39.6 ± 6.68 mV
- Zeta Potential ([10]; 10 mM additive + […] CO2): −3.35 ± 8.49 mV
- Zeta Potential ([10]; 10 mM additive): −50.7 ± 13.1 mV
- Zeta Potential ([10]; 0.8 molal additive + 1 h CO2): 2.29 mV
- Zeta Potential ([10]; 0.8 molal additive): −17.4 ± 3.92 mV
- reduction of conductivity ([4]; 1:1 v/v H2O:amine switched with CO2, 90 minutes at 80° C., N2 through glass frit): approximately 95%
- Zeta Potential ([11]; 1 mM additive + […] CO2, illite clay): −4.69 ± 4.23 mV
- Zeta Potential ([11]; 1 mM additive + […] CO2, montmorillonite clay): −3.20 ± 4.61 mV
- Zeta Potential ([11]; 1 mM additive, illite clay): −39.5 ± 6.32 mV
- Zeta Potential ([11]; 1 mM additive, montmorillonite clay): −40.2 ± 6.87 mV
- Zeta Potential ([11]; 10 mM additive + […] CO2, illite clay): −3.12 ± 7.16 mV
- Zeta Potential ([11]; 10 mM additive + […] CO2, montmorillonite clay): 9.07 ± 4.18 mV
- Zeta Potential ([11]; 10 mM additive, illite clay): −48.2 ± 7.44 mV
- Zeta Potential ([11]; 10 mM additive, montmorillonite clay): −23.6 ± 5.68 mV
- Zeta Potential ([11]; 0.8 molal additive + 1 h CO2, illite clay): −4.56 mV
- Zeta Potential ([11]; 0.8 molal additive + 1 h CO2, montmorillonite clay): −5.52 mV
- Zeta Potential ([11]; 0.8 molal additive, illite clay): −26.0 ± 3.92 mV
- Zeta Potential ([11]; 0.8 molal additive, montmorillonite clay): −25.8 ± 4.14 mV
- pH ([12]; kaolinite Sample 2, 1 mM TMDAB): 7.13
- pH ([12]; kaolinite Sample 2, 1 mM TMDAB + CO2): 4.75
- pH ([12]; kaolinite Sample 2, 10 mM TMDAB): 10.41
- pH ([12]; kaolinite Sample 2, 10 mM TMDAB + CO2): 5.95

SMILES: CCCC[N+](CCCC)(CCCC)CCCC.[Br-] [[^nBu4N]Br, Tetra-n-butylammonium bromide]
- C after 30 mins CO2 [3]: 1781 μS/cm
- Initial C [3]: 1892 μS/cm

SMILES: OC[C@H]1O[C@@](CO)(O[C@H]2O[C@H](CO)[C@@H](O)[C@H](O)[C@H]2O)[C@@H](O)[C@@H]1O [sucrose]
- osmotic pressure [6]: about 130 atm

Source: patent publication US10377647B2, “Systems and methods for use of water with switchable ionic strength” (Queen's University at Kingson, priority 2010, dated 2019)
